Measured values reported in ChEMBL document CHEMBL5465560, “Selectivity Literature for EUbOPEN Chemogenomic Library” (2024).

Experiments:
[1] = target: T1, Histone-lysine N-methyltransferase NSD3 (Homo sapiens) (UniProt Q9BZ95); assay: Selectivity interaction (Methyltransferase screen (Scintillation proximity assays)) EUB0000255b NSD3
T1 sequence (whole entry): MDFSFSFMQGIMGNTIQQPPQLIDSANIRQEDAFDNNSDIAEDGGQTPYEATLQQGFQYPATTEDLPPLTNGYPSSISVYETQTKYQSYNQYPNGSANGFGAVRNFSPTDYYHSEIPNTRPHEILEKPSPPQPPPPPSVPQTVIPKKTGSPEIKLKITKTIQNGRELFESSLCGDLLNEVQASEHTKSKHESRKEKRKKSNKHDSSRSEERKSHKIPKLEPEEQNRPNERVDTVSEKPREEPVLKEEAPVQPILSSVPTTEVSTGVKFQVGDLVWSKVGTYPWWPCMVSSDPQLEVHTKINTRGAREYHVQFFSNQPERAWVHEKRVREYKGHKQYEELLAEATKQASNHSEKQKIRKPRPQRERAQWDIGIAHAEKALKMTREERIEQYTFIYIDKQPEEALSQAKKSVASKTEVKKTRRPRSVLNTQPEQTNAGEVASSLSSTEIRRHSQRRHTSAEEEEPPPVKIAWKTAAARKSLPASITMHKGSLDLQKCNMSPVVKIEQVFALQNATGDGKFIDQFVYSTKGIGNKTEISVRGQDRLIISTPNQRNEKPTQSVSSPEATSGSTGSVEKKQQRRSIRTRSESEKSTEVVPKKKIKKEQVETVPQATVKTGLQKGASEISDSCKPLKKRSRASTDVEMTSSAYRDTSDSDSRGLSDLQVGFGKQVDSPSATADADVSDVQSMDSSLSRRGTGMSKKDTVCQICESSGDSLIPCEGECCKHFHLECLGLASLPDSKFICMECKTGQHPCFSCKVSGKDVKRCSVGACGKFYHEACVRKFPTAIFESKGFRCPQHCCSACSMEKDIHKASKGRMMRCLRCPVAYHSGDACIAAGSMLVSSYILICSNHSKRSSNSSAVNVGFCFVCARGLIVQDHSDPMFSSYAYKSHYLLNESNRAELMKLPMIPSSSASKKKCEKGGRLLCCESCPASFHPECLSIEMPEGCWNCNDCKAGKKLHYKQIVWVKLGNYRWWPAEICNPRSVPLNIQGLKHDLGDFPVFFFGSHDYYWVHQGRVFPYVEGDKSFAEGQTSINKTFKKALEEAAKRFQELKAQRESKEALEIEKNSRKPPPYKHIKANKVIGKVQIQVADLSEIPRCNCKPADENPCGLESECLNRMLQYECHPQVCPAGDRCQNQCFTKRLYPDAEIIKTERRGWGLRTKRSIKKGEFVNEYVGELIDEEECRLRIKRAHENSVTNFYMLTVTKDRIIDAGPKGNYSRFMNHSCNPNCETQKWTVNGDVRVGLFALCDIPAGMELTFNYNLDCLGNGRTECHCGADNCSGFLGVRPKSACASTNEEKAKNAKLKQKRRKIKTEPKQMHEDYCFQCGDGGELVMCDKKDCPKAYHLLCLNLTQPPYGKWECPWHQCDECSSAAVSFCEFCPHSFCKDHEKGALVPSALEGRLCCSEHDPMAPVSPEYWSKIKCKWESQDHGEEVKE

[2] = target: Serine/threonine-protein kinase NIM1 (Homo sapiens, UniProt Q8IY84); assay: Selectivity interaction (KinomeScan (DiscoverX)) EUB0000229b NIM1K; conditions: at 10 µM
[3] = target: Myosin light chain kinase 2, skeletal/cardiac muscle (Homo sapiens) (UniProt Q9H1R3); assay: Selectivity interaction (KinomeScan (DiscoverX)) EUB0000092b MYLK2; conditions: at 10 µM
[4] = target: T2, Protein kinase C iota type (Homo sapiens) (UniProt P41743); assay: Selectivity interaction (Millipore kinase profiler) EUB0000124b PRKCI; conditions: at 10 µM
T2 sequence (whole entry): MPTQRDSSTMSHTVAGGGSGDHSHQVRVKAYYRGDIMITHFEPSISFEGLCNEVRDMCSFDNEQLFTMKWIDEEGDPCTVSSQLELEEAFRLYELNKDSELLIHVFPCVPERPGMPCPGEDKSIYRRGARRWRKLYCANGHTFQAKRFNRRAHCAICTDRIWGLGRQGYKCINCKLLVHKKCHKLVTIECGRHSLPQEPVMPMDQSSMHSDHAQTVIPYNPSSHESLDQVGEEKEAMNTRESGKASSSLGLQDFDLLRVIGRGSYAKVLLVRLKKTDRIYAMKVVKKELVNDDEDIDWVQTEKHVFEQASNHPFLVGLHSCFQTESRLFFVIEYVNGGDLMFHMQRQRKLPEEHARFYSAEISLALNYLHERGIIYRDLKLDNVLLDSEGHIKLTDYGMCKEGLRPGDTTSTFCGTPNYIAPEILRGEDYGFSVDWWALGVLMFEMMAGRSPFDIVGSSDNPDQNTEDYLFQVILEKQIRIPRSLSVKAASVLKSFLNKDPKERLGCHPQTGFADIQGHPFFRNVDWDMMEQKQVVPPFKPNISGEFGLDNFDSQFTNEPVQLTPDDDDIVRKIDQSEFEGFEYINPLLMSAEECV

[5] = target: Cyclin-dependent kinase 17 (Homo sapiens) (UniProt Q00537); assay: Selectivity interaction (ActivX KiNativ screen (kinase selectivity in THP-1 cell lysates)) EUB0000639a CDK17; assay type: subcellular; conditions: lysate, at 0.01 µM
[6] = target: Cyclin-dependent kinase 5 (Homo sapiens, UniProt Q00535); assay: Selectivity interaction (ActivX KiNativ screen (kinase selectivity in THP-1 cell lysates)) EUB0000639a CDK5; assay type: subcellular; conditions: lysate, at 1 µM
[7] = target: Serine/threonine-protein kinase PAK 6 (Homo sapiens) (UniProt Q9NQU5); assay: Selectivity interaction (KinomeScan (DiscoverX)) EUB0000045b PAK6
Focal adhesion kinase 1 = Focal adhesion kinase 1 (Homo sapiens, UniProt Q05397); assay: Selectivity interaction (KinomeScan (DiscoverX)) EUB0000045b PTK2
[8] = target: 5'-AMP-activated protein kinase catalytic subunit alpha-1 (Homo sapiens, UniProt Q13131); assay: Selectivity interaction (ActivX KiNativ screen (ex vivo kinase selectivity in human PBMCs)) EUB0001619a PRKAA1; assay type: cell-based; conditions: PBMC, at 1 µM
5'-AMP-activated protein kinase catalytic subunit alpha-1, sequence (Q13131 whole entry, looked up): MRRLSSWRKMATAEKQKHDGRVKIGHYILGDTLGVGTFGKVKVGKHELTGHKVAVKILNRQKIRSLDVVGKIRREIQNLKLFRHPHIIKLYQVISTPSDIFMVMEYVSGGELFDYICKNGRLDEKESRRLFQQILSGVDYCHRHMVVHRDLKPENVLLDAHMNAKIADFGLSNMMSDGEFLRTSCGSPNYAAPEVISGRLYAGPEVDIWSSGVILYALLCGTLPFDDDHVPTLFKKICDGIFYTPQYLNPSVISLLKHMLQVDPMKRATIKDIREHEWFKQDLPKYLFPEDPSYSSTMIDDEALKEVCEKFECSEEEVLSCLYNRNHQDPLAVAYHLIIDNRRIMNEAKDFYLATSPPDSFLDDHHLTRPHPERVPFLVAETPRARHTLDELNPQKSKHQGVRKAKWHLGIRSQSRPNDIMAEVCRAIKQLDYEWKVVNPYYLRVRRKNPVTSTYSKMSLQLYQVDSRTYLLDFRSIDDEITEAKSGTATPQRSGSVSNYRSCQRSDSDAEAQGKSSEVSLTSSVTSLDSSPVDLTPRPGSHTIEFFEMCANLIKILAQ

Serine/threonine-protein kinase PAK 6 (Homo sapiens), sequence (Q9NQU5 whole entry, looked up): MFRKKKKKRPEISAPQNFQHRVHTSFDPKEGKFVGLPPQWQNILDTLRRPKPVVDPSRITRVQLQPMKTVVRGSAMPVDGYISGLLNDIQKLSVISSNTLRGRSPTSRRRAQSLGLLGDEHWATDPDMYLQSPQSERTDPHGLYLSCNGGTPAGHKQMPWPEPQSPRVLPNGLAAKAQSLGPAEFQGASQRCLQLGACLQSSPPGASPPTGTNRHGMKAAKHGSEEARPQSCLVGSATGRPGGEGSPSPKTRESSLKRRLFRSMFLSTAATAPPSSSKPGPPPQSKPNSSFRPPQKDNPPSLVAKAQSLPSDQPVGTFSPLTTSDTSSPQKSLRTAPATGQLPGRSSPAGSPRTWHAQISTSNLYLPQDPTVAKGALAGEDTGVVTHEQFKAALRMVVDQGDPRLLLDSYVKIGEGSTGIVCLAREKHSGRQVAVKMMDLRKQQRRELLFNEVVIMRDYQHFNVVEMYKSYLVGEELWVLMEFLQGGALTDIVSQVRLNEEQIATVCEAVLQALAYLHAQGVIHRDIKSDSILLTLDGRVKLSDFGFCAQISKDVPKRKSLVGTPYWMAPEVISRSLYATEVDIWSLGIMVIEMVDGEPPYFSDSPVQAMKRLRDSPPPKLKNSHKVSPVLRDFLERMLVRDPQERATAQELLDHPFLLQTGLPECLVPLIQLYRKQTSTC
Focal adhesion kinase 1, sequence (Q05397 2-1052 limits assumed): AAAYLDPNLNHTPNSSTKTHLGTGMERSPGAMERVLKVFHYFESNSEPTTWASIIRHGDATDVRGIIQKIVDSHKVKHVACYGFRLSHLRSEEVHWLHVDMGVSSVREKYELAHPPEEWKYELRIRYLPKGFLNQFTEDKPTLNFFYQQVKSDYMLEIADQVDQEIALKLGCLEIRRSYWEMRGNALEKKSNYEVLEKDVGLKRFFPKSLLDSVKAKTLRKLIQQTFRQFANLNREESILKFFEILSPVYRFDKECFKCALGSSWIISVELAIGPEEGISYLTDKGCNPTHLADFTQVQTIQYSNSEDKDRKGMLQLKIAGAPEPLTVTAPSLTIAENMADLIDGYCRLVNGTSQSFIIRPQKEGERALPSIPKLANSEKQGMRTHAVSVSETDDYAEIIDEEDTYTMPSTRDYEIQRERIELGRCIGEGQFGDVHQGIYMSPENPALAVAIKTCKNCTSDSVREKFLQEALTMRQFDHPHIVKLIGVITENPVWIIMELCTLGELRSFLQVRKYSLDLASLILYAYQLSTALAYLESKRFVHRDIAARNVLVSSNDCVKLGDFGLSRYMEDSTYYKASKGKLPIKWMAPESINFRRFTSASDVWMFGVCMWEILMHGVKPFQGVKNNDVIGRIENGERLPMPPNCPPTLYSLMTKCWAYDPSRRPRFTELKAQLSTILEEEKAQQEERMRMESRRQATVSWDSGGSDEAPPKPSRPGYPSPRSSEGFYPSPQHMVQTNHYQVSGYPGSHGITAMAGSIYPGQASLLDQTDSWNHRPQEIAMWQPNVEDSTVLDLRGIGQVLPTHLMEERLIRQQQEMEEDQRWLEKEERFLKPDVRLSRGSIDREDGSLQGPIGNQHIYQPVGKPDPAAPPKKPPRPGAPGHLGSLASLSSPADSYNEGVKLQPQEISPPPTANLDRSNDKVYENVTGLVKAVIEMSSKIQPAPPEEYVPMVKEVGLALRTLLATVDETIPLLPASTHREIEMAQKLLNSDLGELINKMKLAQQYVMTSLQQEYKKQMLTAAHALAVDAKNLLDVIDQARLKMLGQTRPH
Serine/threonine-protein kinase NIM1, sequence (Q8IY84 whole entry): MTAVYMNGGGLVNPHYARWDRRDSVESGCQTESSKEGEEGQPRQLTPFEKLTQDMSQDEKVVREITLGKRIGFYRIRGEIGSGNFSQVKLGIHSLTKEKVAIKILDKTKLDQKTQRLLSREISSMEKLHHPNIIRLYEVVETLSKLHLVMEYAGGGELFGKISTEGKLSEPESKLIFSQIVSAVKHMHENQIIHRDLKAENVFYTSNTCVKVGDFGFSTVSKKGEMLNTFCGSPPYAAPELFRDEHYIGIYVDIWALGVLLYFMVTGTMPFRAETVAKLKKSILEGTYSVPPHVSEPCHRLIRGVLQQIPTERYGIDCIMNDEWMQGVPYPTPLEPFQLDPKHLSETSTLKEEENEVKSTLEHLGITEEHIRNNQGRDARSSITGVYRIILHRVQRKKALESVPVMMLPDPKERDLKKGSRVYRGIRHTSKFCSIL
Myosin light chain kinase 2, skeletal/cardiac muscle (Homo sapiens), sequence (Q9H1R3 whole entry): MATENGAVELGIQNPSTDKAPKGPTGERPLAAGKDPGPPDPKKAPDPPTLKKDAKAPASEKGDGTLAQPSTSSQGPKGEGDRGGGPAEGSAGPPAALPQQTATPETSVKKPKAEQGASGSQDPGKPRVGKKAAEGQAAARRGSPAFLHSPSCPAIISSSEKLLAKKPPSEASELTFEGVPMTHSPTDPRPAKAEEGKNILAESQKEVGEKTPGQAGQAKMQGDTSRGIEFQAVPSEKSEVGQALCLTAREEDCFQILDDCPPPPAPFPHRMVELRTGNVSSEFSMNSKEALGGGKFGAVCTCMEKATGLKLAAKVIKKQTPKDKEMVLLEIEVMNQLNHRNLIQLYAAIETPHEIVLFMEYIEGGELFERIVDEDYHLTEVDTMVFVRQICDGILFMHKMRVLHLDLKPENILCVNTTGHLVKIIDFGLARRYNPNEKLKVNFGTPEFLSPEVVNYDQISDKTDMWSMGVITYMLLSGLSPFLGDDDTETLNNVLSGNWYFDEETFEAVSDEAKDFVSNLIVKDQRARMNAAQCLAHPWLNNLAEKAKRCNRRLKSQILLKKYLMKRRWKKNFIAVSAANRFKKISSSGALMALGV
Cyclin-dependent kinase 17 (Homo sapiens), sequence (Q00537 whole entry, looked up): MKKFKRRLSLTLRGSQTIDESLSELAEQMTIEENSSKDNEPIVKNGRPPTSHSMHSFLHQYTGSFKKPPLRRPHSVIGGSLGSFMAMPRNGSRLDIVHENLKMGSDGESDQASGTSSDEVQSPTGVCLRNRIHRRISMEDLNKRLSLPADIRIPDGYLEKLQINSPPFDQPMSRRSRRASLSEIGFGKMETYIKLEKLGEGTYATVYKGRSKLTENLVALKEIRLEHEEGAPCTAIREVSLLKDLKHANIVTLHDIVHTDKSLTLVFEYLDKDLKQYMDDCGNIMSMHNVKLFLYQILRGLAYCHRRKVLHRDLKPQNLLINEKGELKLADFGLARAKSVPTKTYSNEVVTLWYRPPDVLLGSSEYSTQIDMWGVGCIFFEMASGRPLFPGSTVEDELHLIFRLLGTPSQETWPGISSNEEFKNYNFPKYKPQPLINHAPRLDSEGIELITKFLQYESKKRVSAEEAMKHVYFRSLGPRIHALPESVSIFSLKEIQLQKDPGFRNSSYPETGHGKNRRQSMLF
Cyclin-dependent kinase 5, sequence (Q00535 whole entry, looked up): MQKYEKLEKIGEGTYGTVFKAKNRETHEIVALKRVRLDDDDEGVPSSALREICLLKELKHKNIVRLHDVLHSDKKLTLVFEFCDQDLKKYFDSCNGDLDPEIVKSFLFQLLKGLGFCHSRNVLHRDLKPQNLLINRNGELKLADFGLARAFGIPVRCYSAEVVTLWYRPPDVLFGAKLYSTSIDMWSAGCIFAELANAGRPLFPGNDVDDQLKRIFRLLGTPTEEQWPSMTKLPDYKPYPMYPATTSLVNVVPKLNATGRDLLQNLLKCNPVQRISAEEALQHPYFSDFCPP

`COCCN1CCC(c2cc(CN(C)C(=O)c3cccc(Oc4ccccc4)c3)ccn2)CC1` was tested, and the % activity ([1]; at 1 µM) was > 95% and the % activity ([1]; at 10 µM) was > 90%.

`COc1cc(N(C)c2ccnc3ccc(C(F)(F)F)cc23)cc(OC)c1OC` showed a % binding [2] of 100%.

In the case of `CCC(=O)N1CCN(c2ccc(-n3c(=O)ccc4cnc5ccc(-c6cnc7ccccc7c6)cc5c43)cc2C(F)(F)F)CC1`, the % of control [3] is reported as 40%.

`CC(=O)Nc1cccc(-n2c(=O)n(C3CC3)c(=O)c3c(Nc4ccc(I)cc4F)n(C)c(=O)c(C)c32)c1` was tested, and the % of control [4] was 83%.

With `CC[C@@H]1[C@H](F)C(=O)N[C@@H]1COc1nccc2cc(C(N)=O)c(OC)cc12` [ZIMLOVISERTIB] the % of inhibition [5] was 16.3% and the % of inhibition [6] was -3.5%.

With `C=CC(=O)Nc1cc(-n2c(=O)ccc3cnc4ccc(-c5ccc(NS(C)(=O)=O)cc5)cc4c32)ccc1C` the % of control ([7]; at 1 µM) was 100%, the % of control ([7]; at 10 µM) was 73% and the % of control (Focal adhesion kinase 1; at 1 µM) was 96%. For the same compound, the % of control (Focal adhesion kinase 1; at 10 µM) was 100%.

Compound `N#Cc1cccc(-c2c[nH]c3ncnc(N4CCOCC4)c23)c1` has a % of inhibition [8] of 33%.
